From patent publication US10239933B2, “Compositions and methods for modulating thrombin generation” (The Children's Hospital of Philadelphia, priority 2011, dated 2019)
Entries after “also recorded” stand apart in the source; their conditions may differ. Ends that are not written are not given here.

Columns and labels:
Type in all cases: biochemical
FXa/FV-DT = molecular target: T1, FXa/FV-DT (Homo sapiens, UniProt P12259, DEL839-1519); experiment: Prothrombin activation assay, prothrombinase containing FV-810 (FV-DT); conditions: peptide titrated, 1.4 μM prothrombin, 50 μM PCPS, 25° C.
T1 construct: amino acids 1-28 are a signal peptide that is cleaved and numbering begins at residue 29; made in house
Procedure: Steady-state initial velocities of prothrombin cleavage were determined discontinuously at 25° C. by measuring the initial rate of thrombin formation. Reaction mixtures contained liposomes (75:25, PC:PS), prothrombin, the indicated Factor V variants, and the Factor V peptides FVBR or s46. The reactions were initiated by adding Factor Xa, and thrombin generation was determined at multiple time points by monitoring the cleavage of the chromogenic thrombin substrate S-2238.
Steady-state initial velocities of prothrombin cleavage were determined discontinuously at 25° C. as described (Camire, R. M. (2002) J. Biol. Chem., 277:37863-37870). Reaction mixtures containing PCPS (50 μM), DAPA (3 μM), prothrombin (1.4 μM), and either rFVa or the indicated FV-810 derivatives were incubated with B-domain peptides (0-10 μM) in assay buffer. […] Prothrombin activation was determined using the chromogenic thrombin substrate 52238 as described (Camire, R. M. (2002) J. Biol. Chem., 277:37863-37870).

FV-810 = molecular target: T2, FV-810 (Homo sapiens, UniProt P12259, DEL839-1519); experiment: Clotting assay, FV-deficient plasma supplemented with FV-810 (FV-DT); conditions: for inhibition of clotting activity of FV-810 (FV-DT): FV-deficient plasma, FIG. 8A: 0.25 nM FV-810, peptides at 5 μM
T2 construct: amino acids 1-28 are a signal peptide that is cleaved and numbering begins at residue 29; made in house
Procedure: (§1) Residual clotting activity of Factor V variants was determined by prothrombin time-based clotting assays. Factor V variants were incubated with either the FVBR or s46 peptide, after which the mixtures were mixed with Factor V deficient plasma and clotting times were measured. Where indicated, the Factor V variants were activated by pre-incubation with thrombin prior to addition of the peptides.
(§2) FV derivatives (500 nM) were prepared in assay buffer. Where noted, FV derivatives were pretreated with 10 nM thrombin for 15 minutes at 37° C., followed by the addition of 15 nM hirudin. Samples were diluted to 0.25 nM in assay buffer with 0.1% BSA, and the specific clotting activity was measured in FV-deficient plasma (George King Bio-Medical, Overland Park, Kans.) with TriniCLOT PT Excel (Tcoag, Wicklow, Ireland) as described (Camire et al. (1998) Biochemistry 37:11896-11906). The data are presented as the means±S.D.

plasma-derived Factor V = molecular target: T3, plasma-derived Factor V (Homo sapiens, UniProt P12259); experiment: Proteolytic activation of Factor V by thrombin (SDS-PAGE); conditions: presence of FVBR
T3 construct: from tissue; host or cells: plasma
Procedure: Plasma-derived Factor V was incubated with thrombin in the presence or absence of FVBR peptide. Samples were removed and quenched in sample buffer at the indicated times, and the cleavage products were analyzed by SDS-PAGE and Coomassie Brilliant Blue staining.

FV-810^R709Q = molecular target: T4, FV-810^R709Q (Homo sapiens, UniProt P12259, DEL839-1519/R737Q); experiment: Clotting assay with FV-810^R709Q; conditions: prior to thrombin cleavage
T4 construct: amino acids 1-28 are a signal peptide that is cleaved and numbering begins at residue 29; made in house
Procedure: as §1, §2

FV-810^QQ = molecular target: T5, FV-810^QQ (Homo sapiens, UniProt P12259, DEL839-1519/R1573Q/R737Q); experiment: Clotting assay with FV-810^QQ
T5 construct: amino acids 1-28 are a signal peptide that is cleaved and numbering begins at residue 29; made in house
Procedure: as §1, §2

T3 sequence (P12259 29-2224): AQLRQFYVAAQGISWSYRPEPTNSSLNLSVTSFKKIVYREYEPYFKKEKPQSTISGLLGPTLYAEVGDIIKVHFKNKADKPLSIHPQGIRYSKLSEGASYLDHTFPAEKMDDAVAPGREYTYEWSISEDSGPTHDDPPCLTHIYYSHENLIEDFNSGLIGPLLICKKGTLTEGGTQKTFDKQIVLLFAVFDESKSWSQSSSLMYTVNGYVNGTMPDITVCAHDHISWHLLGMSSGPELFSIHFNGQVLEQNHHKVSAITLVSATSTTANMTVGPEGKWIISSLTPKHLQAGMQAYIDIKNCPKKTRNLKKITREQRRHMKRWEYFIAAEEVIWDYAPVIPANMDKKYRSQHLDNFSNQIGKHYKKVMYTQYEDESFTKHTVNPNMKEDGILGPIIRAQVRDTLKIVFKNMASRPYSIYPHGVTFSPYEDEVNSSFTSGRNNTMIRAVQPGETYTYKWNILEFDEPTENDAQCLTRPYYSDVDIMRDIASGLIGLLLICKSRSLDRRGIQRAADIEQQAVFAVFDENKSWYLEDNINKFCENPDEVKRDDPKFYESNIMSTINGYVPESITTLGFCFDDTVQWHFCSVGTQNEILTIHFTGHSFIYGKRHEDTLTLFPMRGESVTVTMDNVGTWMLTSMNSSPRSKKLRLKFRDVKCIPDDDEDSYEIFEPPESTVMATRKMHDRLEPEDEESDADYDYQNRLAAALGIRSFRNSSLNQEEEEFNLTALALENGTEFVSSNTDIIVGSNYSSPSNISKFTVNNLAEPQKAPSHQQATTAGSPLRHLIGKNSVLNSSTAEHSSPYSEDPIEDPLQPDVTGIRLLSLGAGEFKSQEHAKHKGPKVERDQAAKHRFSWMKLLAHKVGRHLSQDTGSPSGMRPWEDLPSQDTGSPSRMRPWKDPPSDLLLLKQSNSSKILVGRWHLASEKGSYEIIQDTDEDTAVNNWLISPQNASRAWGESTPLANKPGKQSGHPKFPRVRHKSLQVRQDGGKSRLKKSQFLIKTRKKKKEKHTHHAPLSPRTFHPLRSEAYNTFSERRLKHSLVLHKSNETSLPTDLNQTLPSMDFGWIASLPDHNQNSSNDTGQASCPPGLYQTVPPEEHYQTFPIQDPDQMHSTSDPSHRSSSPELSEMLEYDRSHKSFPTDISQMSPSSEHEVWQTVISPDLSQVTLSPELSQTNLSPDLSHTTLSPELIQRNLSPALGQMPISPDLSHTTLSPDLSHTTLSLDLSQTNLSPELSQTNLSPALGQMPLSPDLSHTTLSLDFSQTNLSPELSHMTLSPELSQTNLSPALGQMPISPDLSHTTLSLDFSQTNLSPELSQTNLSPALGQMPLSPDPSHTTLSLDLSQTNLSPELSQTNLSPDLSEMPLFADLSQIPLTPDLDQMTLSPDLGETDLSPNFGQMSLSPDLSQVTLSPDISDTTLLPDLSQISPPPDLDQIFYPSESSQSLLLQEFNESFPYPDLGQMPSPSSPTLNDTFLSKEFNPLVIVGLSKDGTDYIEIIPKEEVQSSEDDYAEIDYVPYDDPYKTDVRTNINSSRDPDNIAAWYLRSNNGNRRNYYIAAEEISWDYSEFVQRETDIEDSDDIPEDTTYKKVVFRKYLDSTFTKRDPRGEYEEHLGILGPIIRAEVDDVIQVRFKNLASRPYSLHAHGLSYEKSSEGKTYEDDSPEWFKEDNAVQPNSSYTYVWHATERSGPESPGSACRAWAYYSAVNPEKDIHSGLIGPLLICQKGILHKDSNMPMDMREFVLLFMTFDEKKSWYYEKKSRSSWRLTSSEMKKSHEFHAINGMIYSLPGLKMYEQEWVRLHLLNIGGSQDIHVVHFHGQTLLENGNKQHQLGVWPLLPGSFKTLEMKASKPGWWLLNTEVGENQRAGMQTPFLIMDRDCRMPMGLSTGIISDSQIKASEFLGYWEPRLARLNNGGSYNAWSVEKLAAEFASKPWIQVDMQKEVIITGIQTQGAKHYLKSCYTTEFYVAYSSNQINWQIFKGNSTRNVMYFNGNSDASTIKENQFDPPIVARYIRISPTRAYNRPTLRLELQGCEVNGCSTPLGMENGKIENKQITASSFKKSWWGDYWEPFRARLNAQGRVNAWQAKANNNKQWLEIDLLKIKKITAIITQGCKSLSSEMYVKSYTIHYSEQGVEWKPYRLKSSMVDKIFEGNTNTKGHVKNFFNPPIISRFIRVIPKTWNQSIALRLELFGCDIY
T2 sequence (P12259 with tags, fused parts or gaps DEL839-1519): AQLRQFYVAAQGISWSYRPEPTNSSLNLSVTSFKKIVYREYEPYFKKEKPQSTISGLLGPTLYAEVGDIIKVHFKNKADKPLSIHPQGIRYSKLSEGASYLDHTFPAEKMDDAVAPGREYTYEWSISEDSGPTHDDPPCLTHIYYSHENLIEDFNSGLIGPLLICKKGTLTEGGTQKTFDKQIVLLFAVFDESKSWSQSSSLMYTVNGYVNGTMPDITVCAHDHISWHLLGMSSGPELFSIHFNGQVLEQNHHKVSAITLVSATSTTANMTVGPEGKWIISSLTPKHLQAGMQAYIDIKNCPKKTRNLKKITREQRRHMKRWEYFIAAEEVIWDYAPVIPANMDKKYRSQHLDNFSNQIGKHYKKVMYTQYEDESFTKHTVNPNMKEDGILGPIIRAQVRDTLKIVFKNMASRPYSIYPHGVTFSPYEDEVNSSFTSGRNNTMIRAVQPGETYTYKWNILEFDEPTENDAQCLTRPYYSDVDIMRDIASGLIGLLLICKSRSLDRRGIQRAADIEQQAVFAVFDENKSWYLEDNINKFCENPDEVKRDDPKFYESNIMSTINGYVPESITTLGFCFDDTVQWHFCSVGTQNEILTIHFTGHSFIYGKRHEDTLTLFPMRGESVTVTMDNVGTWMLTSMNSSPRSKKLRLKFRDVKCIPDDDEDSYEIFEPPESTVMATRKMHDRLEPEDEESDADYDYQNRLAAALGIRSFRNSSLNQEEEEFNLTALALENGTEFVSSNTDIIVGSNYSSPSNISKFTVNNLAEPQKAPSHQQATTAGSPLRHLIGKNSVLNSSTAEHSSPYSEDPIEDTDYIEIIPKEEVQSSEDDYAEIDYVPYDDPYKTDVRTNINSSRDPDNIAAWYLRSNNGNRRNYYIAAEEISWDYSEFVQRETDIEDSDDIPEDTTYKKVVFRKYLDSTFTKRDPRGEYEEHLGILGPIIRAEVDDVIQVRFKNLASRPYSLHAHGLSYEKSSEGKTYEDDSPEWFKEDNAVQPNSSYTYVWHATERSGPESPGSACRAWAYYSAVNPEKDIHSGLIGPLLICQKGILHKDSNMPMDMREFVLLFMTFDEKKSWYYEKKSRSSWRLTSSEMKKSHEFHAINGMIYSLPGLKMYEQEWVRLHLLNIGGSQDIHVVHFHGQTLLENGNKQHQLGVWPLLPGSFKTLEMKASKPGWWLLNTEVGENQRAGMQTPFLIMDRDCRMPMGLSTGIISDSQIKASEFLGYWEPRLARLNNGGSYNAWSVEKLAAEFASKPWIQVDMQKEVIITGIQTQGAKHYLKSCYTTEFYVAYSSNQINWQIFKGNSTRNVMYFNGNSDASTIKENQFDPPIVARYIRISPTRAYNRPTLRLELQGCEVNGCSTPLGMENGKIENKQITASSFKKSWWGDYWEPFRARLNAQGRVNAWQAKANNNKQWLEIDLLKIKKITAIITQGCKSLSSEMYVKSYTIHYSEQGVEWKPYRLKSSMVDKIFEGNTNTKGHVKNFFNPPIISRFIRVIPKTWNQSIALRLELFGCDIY
T1 sequence (P12259 with tags, fused parts or gaps DEL839-1519): as above
T5 sequence (P12259 with tags, fused parts or gaps R737Q/DEL839-1519/R1573Q): as the sequence (P12259 with tags, fused parts or gaps DEL839-1519) above, with R709Q, R864Q counted along it
T4 sequence (P12259 with tags, fused parts or gaps R737Q/DEL839-1519): as the sequence (P12259 with tags, fused parts or gaps DEL839-1519) above, with R709Q counted along it

SRAWGESTPLANKPGKQSGHPKFPRVRHKSLQVRQDGGKSRLKKSQFLIKTRKKKKEK [FVBR]
inhibition of prothrombin activation with FV-810 (FV-DT) (FXa/FV-DT): inhibiting; also recorded: inhibition
inhibition of prothrombin activation with FV-810 (FV-DT) (FXa/FV-DT; listed as BR peptide): effectively inhibited
inhibition of clotting activity of FV-810 (FV-DT) (FV-810): inhibited
inhibition of clotting activity of FV-810 (FV-DT) (FV-810; listed as BR peptide): similarly inhibited
inhibition of FV-810 (FV-810; prior to thrombin cleavage): potently inhibited
proteolytic activation of FV by thrombin, cleavage at Arg1545 (plasma-derived Factor V): delays the proteolytic activation; also recorded: delayed cleavage
thrombin cleavage of FV at Arg709 (plasma-derived Factor V): proceeds normally
inhibition of FV-810^R709Q (FV-810^R709Q): potently inhibited
inhibition of FV-810^QQ (FV-810^QQ; following incubation with thrombin): still inhibited
inhibition of FV-810^QQ (FV-810^QQ; prior to thrombin cleavage): potently inhibited
